Six compounds from patent publication US20240293362A1, “Soluble Epoxide Hydrolase Inhibitors and Use Thereof” (Board of Trustees of Michigan State University, priority 2021, published 2024) can be followed below.

Usually melting point stands for the temperature, or range, at which the solid turns liquid. On to `CCC(=O)NCC1CCN(C(=O)Nc2ccc(OC(F)(F)F)cc2)C1` (stereo not drawn) [Example 12, 3-(propanamidomethyl)-N-[4-(trifluoromethoxy)phenyl]pyrrolidine-1-carboxamide], for which the melting point fell in the range of 166 to 167 °C.
The value for `CCC(=O)N1CC[C@H](NC(=O)Nc2ccc(OC(F)(F)F)cc2)[C@@H](F)C1` [Example 47, 1-((3S,4S)-3-fluoro-1-propionylpiperidin-4-yl)-3-(4-(trifluoromethoxy)phenyl)urea] was 180 to 181 °C.
With `CCC(=O)N1CC[C@H](NC(=O)Nc2ccc(OC(F)(F)F)cc2)C[C@H]1C` [Example 48, 1-((2R,4S)-2-methyl-1-propionylpiperidin-4-yl)-3-(4-(trifluoromethoxy)phenyl)urea], the melting point fell in the range of 175 to 176 °C.
Take `CCC(=O)N1CC[C@@H](NC(=O)Nc2ccc(OC(F)(F)F)cc2)[C@@H](F)C1` [Example 45, 1-((3S,4R)-3-fluoro-1-propionylpiperidin-4-yl)-3-(4-(trifluoromethoxy)phenyl)urea]: the melting point is 231 to 232 °C.
The compound `CCC(=O)N1CC[C@H](NC(=O)Nc2ccc(OC(F)(F)F)cc2)[C@H](F)C1` [Example 46, 1-((3R,4S)-3-fluoro-1-propionylpiperidin-4-yl)-3-(4-(trifluoromethoxy)phenyl)urea] had a melting point of 245 to 246 °C.
As for `CCC(=O)N1CCC(NC(=O)Nc2ccc(OC(F)(F)F)cc2)C(F)(F)C1` (stereo not drawn) [Example 44, 1-(3,3-difluoro-1-propionylpiperidin-4-yl)-3-(4-(trifluoromethoxy)phenyl)urea], the figure is 223 to 224 °C.
